Type in all cases: in vivo, rat
Experiment [1] concerns IL-1beta. As to the kind of experiment: RT-qPCR of bladder IL-1beta mRNA in CYP cystitis model. The conditions noted are these: CYP (75 mg/kg i.p.) female Sprague Dawley rats; oral 8-AG 5 mg/kg/day starting one week prior to CYP. The method, then: Animals: Female Sprague Dawley rats were employed in this example (Charles River; Wilmington, Mass.). Three groups of animals were included. Group 1 received an i.p. injection of saline and was used as a control; groups 2 and 3 received an i.p. injection of cyclophosphamide (CYP, SIGMA-ALDRICH®, St Louis, Mo., day 0, 3, 6, sacrifice day 8, 75 mg/kg, i.p.) with group 3 treated with oral 8-AG (5 mg/kg/day; starting one week prior to CYP). CYP induced bladder inflammation and is a well-established pre-clinical model for BPS/IC.
RT-qPCR: Total RNA was isolated from bladders using TRIZOL® Reagent (THERMO FISHER SCIENTIFIC®; Waltham, Mass.) according to the manufacturer's instructions. The cDNA was synthesized using ISCRIPT™ cDNA synthesis kit (BIO-RAD®). qPCR analysis was performed using Power SYBR™ Green PCR Master Mix (THERMO FISHER SCIENTIFIC®) in the APPLIED BIOSYSTEMS® QUANTSTUDIO™ 3 Real-Time PCR System (THERMO FISHER SCIENTIFIC®). The primers used were as follows: for IL-1beta, 5′-[…]-3′ (forward; SEQ ID NO: 1) and 5′-[…]-3′ (reverse; SEQ ID NO: 2); for MCP-1, 5′-[…]-3′ (forward; SEQ ID NO: 3) and 5′-[…]-3′ (reverse; SEQ ID NO: 4); for β-actin, 5′-ACTCTTCCAGCCTTCCTTC-3′ (forward; SEQ ID NO: 5) and 5′-[…]-3′ (reverse; SEQ ID NO: 6). The threshold cycle (Ct) for target was subtracted from Ct for β-actin to give ΔCt. Results are expressed as 2AC.
Background: In qPCR the cycle at which signal appears reflects the starting amount.

Experiment [2] relates to parkin. Kind of experiment: Western immunoblotting, parkin. As to conditions: aged rats; oral 8-AG 5 mg/kg/day, 6 weeks. As to the method: (§1) Western immunoblotting: One half of each bladder preparation was homogenized using Lysing Matrix D in a FastPrep 24 instrument (MP Biomedicals, Solon, Ohio) in HBSS (5 mM KCl, 0.3 mM KH2PO4, 138 mM NaCl, 4 mM NaHO3, 0.3 mM Na2HCO3, 0.3 mM Na2HPO4, 5.6 mM glucose and 10 mM Hepes, pH 7.4) containing complete protease inhibitor cocktail (1 tablet/10 ml, ROCHE®, Indianapolis, Ind.)) and phosphatase inhibitor cocktail (SIGMA®, 1:100). After centrifugation (13000 rpm; 15 min at 4° C.), the membrane protein fraction was prepared by suspending the membrane pellets in lysis buffer containing 0.3 M NaCl, 50 mM Tris-HCl (pH 7.6) and 0.5% Triton X-100 and the same concentration of protease inhibitors as above. The suspensions were incubated on ice and centrifuged (13000 rpm; 15 min at 4° C.). The protein concentrations of the combined supernatants were determined using the PIERCE® BCA protein assay (THERMO SCIENTIFIC®, Rockford, Ill.). […] As a loading control, total protein per sample was determined using Bio-Rad® Stain Free SDS-PAGE gel technology. UV-activated protein fluorescence was imaged on a CHEMIDOC® MP (BIO-RAD®). […] The volume (intensity) of each protein species was determined and normalized to total protein using Image Lab software (BIO-RAD®).
On the technique in general: In western blotting, separated proteins are transferred to a membrane and probed.

The test system of experiment [3] is mitofusin 2 (MFN2). As to the kind of experiment: Western immunoblotting, mitofusin 2. As to conditions: aged rats; oral 8-AG 5 mg/kg/day, 6 weeks. As to the method:
as §1

Entries after “also recorded” stand apart in the source; their conditions may differ.

Consider `Nc1nc2[nH]c(N)nc2c(=O)[nH]1` [8-AG, 8-Aminoguanine], for which, in experiment [1], the “IL-1beta mRNA expression in bladder” value is given as “suppressed; also recorded: near the detection limit; also recorded: nearly abolished”. In addition, the “parkin in bladder mucosa” value in experiment [2] is reported as “reversed or restored to levels similar to the younger state; also recorded: restored changes similar to a younger state”. Further, the “mitofusin 2 (MFN2) in bladder mucosa” value in experiment [3] is on record as “reversed or restored to levels similar to the younger state; also recorded: restored changes similar to a younger state”.

The values above are taken from patent US20220054494A1, “METHODS FOR TREATING BLADDER AND URETHRA DYSFUNCTION AND DISEASE” (University of Pittsburgh - Of the Commonwealth System of …, priority 2019, published 2022).
